# Measured values taken from US12077483B2, “Modified amine lipids” (Intellia Therapeutics, Inc., priority 2018, dated 2024).
# Key:
# mouse B2M gene = assay: In vivo editing in mouse liver, LNP with Cas9 mRNA and sgRNA G650, NGS; conditions: Table 3; guide G650; CD-1 female mice, 0.1 mpk i.v., liver at 6 or 7 days; Exp. 2-7
# Procedure: (§1) LNPs were prepared using various amine lipids in a 4-component lipid system consisting of an ionizable lipid (e.g. an amine lipid), DSPC, cholesterol and PEG-2k-DMG. In assays for percent liver editing in mice, Cas9 mRNA and chemically modified sgRNA targeting a mouse sequence were formulated in LNPs, at either a 1:1 w/w ratio or a 1:2 w/w ratio.
# (§2) The lipid components were dissolved in 100% ethanol with the lipid component molar ratios described below. The chemically modified sgRNA and Cas9 mRNA were combined and dissolved in 25 mM citrate, 100 mM NaCl, pH 5.0, resulting in a concentration of total RNA cargo of approximately 0.45 mg/mL. The LNPs were formulated with an N/P ratio of about 6, with the ratio of chemically modified sgRNA: Cas9 mRNA at either a 1:1 or 1:2 w/w ratio as described below.
# (§3) CD-1 female mice, ranging from 6-10 weeks of age were used in each study. Animals were weighed and grouped according to body weight for preparing dosing solutions based on group average weight. LNPs were dosed via the lateral tail vein in a volume of 0.2 mL per animal (approximately 10 mL per kilogram body weight). The animals were periodically observed for adverse effects for at least 24 hours post dose.
# (§4) For studies measuring in vivo editing in liver, CD-1 female mice were dosed at 0.1 mpk unless otherwise noted. Animals were euthanized at 6 or 7 days by exsanguinationvia cardiac puncture under isoflourane anesthesia. Liver tissue was collected from each animal for DNA extraction and analysis. Blood was collected into serum separator tubes or into tubes containing buffered sodium citrate for plasma as described herein. Cohorts of mice were measured for editing by Next-Generation Sequencing (NGS).
# (§5) In brief, to quantitatively determine the efficiency of editing at the target location in the genome, genomic DNA was isolated and deep sequencing was utilized to identify the presence of insertions and deletions introduced by gene editing.
# (§6) PCR primers were designed around the target site (e.g., B2M), and the genomic area of interest was amplified. Additional PCR was performed according to the manufacturer's protocols (Illumina) to add the necessary chemistry for sequencing. The amplicons were sequenced on an Illumina MiSeq instrument. The reads were aligned to the relevant reference genome (e.g., GRCm38) after eliminating those having low quality scores. The resulting files containing the reads were mapped to the reference genome (BAM files), where reads that overlapped the target region of interest were selected and the number of wild type reads versus the number of reads which contain an insertion, substitution, or deletion was calculated.
# (§7) The editing percentage (e.g., the “editing efficiency” or “percent editing”) is defined as the total number of sequence reads with insertions or deletions over the total number of sequence reads, including wild type.
# (§8) We assessed in vivo editing efficiency for materials delivered with formulations including various amine lipid compounds. Editing was measured using either G282 (SEQ ID No: 1) which targets the mouse TTR gene or G650 (SEQ ID No. 2) which targets the mouse B2M gene. Lipids described above were assessed for efficacy through in vivo editing experiments. LNPs were formulated at a 1:1 w/w ratio of sgRNA to Cas9 mRNA, and at an N/P ratio of about 6. Molar concentrations of lipids in the lipid component of the LNPs are expressed as mol % amine lipid/DSPC/cholesterol/PEG-2k-DMG, e.g. 50/10/38.5/1.5. The final LNPs were characterized to determine the encapsulation efficiency, polydispersity index, and average particle size according to the analytical methods provided above. Analysis of average particle size, polydispersity (PDI), total RNA content and encapsulation efficiency of RNA are shown in Table 2.
# mouse TTR gene = assay: In vivo editing in mouse liver, LNP with Cas9 mRNA and sgRNA G282, NGS; conditions: for Mean % Indel: Table 5
# Procedure: as §1, §2, §3, §4, §5, §6, §7, §8
# To assess whether the editing was dose responsive, experiments were performed in vivo at various LNP dose levels. […]
# [1] = Tolerability in rats: liver enzyme panel 24 hours post dose; type: in vivo, rat; conditions: Sprague Dawley female rats, 6 mg/kg, serum
# Procedure: For efficacy, Sprague Dawley female rats were dosed i.v. at 0.1 mpk or 0.03 mpk. 6-7 days post dose, rats were euthanized by CO2 asphyxiation. Blood was collected into serum separator tubes. Liver biopsy processed for gDNA and assessed for editing by NGS methods described in Example 115. Results are shown in Table 11 and FIGS. 12A and 12B. For tolerability, Sprague Dawley female rats were dosed at 6 mpk and 24 hours post dose the animals were euthanized by CO2 asphyxiation. Blood was collected into serum separator tubes and sent to an external CRO for quantitation of liver enzymes via a liver enzyme panel.
# TTR in HUH7 cells = assay: In vitro editing in HUH7 cells, LNP with Cas9 mRNA and sgRNA G000502, NGS; type: cell-based, human; conditions: Table 14; 2000 ng RNA per well, cells harvested 6 hours post-transfection, biological duplicate, G000502 target locus
# Procedure: A series of compounds based on Compound 46 that vary by the inclusion of a C4-12 alkyl at the R^3 position of Formula (IA) (as illustrated in FIG. 13A) were tested for in vitro editing. The human hepatocellular carcinoma cell line […] (Japanese Collection of Research Bioresources Cell Bank, Cat. JCRB0403) was cultured in DMEM media supplemented with 10% fetal bovine serum and 1% Penicillin-Streptomycin. Cells were plated at a density of 20,000 cells/well in a 96-well plate 24 hours prior to transfection (˜80% confluent at time of transfection). The LNPs were formulated at a 1:2 w/w ratio of sgRNA and Cas9 mRNA using the cross flow procedure with lipid molar compositions as described in Table 13 at an N/P ratio of 6.0. LNP compositions were analyzed for average particle size, polydispersity (pdi), total RNA content and encapsulation efficiency of RNA as described in Example 115. Analysis of average particle size, polydispersity (PDI), total RNA content and encapsulation efficiency of RNA are shown in Table 13. LNPs were diluted into media, incubated for 5 minutes at 37 C and pipetted onto cells at a dose of 2000 ng RNA per well. Each condition was assayed in biological duplicate. Cells were harvested post-transfection at 6 hours. Genomic DNA was extracted using 50 μL/well BuccalAmp DNA Extraction solution (Epicentre, Cat. QE09050) according to manufacturer's protocol. All DNA samples were subjected to PCR and subsequent NGS analysis for editing at the G000502 target locus, as described above. As shown in Table 14 and FIG. 13B, all compounds tested were efficacious for in vitro editing.
# [2] = Table 7, G00282, CD-1 female mice i.v., dose 0.1 mpk, liver
# [3] = Table 7, G00282, CD-1 female mice i.v., dose 0.3 mpk, liver
# [4] = Table 3, guide G282, CD-1 female mice, 0.1 mpk i.v., liver at 6 or 7 days, Exp. 1, 8, 9, 10
# [5] = G00282, CD-1 female mice i.v., dose 0.1 mpk, liver
# [6] = G00282, CD-1 female mice i.v., dose 0.3 mpk, liver
smiles,measurement,setting,value
"CCCCC/C=C\C/C=C\CCCCCCCC(=O)OCC(COC(=O)CCCCCCC/C=C\C/C=C\CCCCC)OC(=O)CCC(CCCCCCCC)OC(=O)NCC1CCCN1C (stereo not shown) [Compound 35, 2-((4-((((1-methylpyrrolidin-2-yl)methyl)carbamoyl)oxy)dodecanoyl)oxy) propane-1,3-diyl (9Z,9′Z,12Z,12′Z)-bis(octadeca-9,12-dienoate)]",Editing Mean % Indel,mouse B2M gene,35.5%
"CCCCC/C=C\C/C=C\CCCCCCCC(=O)OCC(COC(=O)CCCCCCC/C=C\C/C=C\CCCCC)OC(=O)CCC(CCCCCCCC)OC(=O)NCCN(C)CC (stereo not shown) [Compound 34, 2-((4-(((2-(ethyl(methyl)amino)ethyl)carbamoyl)oxy)dodecanoyl)oxy)propane-1,3-diyl (9Z,9′Z,12Z,12′Z)-bis(octadeca-9,12-dienoate)]",Editing Mean % Indel,mouse TTR gene; [2],54.9%
same,Editing Mean % Indel,mouse TTR gene; [3],68.3%
same,Editing Mean % Indel,mouse B2M gene,44.8%
same,ALP (U/L),[1],542 U/L
same,ALT (U/L),[1],179.6 U/L
same,AST (U/L),[1],349.6 U/L
same,Creatine kinase (U/L),[1],184.8 U/L
same,GGT (U/L),[1],3.4 U/L
same,Total Bilirubin,[1],0.2 mg/dL
same,Editing,TTR in HUH7 cells,49.0%
"CCCCC/C=C\C/C=C\CCCCCCCC(=O)OCC(COC(=O)CCCCCCC/C=C\C/C=C\CCCCC)OC(=O)CCC(CCCCCCCCCC)OC(=O)NCCN(C)CC (stereo not shown) [Compound 39, 2-((4-(((2-(ethyl(methyl)amino)ethyl)carbamoyl)oxy)tetradecanoyl)oxy)propane-1,3-diyl (9Z,9′Z,12Z,12′Z)-bis(octadeca-9,12-dienoate)]",Editing Mean % Indel,mouse TTR gene; [4],36.5%
"CCCCC/C=C\C/C=C\CCCCCCCC(=O)OCC(COC(=O)CCCCCCC/C=C\C/C=C\CCCCC)OC(=O)CCC(CCCCCCCCCCCC)OC(=O)NCCN(C)CC (stereo not shown) [Compound 7, 2-((4-(((2-(ethyl(methyl)amino)ethyl)carbamoyl)oxy)hexadecanoyl)oxy)propane-1,3-diyl (9Z,9′Z,12Z,12′Z)-bis(octadeca-9,12-dienoate)]",Mean % Indel,mouse TTR gene; [5],49.1%
same,Mean % Indel,mouse TTR gene; [6],69.4%
same,Editing Mean % Indel,mouse B2M gene,22.6%
"CCCCC/C=C\C/C=C\CCCCCCCC(=O)OCC(COC(=O)CCCCCCC/C=C\C/C=C\CCCCC)OC(=O)CCC(CCCCCCCC)OC(=O)OCCCN1CCCC1 (stereo not shown) [Compound 36, 2-((4-(((3-(pyrrolidin-1-yl)propoxy)carbonyl)oxy)dodecanoyl)oxy)propane-1,3-diyl (9Z,9′Z,12Z,12′Z)-bis(octadeca-9,12-dienoate)]",Editing Mean % Indel,mouse B2M gene,30.0%
"CCCCC/C=C\C/C=C\CCCCCCCC(=O)OCC(COC(=O)CCC(OCCCCCCCC)OCCCCCCCC)COC(=O)OCCCN(CC)CC (stereo not shown) [Compound 49, 3-((4,4-bis(octyloxy)butanoyl)oxy)-2-((((3-(diethylamino)propoxy)carbonyl)oxy)methyl)propyl (9Z,12Z)-octadeca-9,12-dienoate, reference compound]",Mean % Indel,mouse TTR gene; [5],26.8%
same,Mean % Indel,mouse TTR gene; [6],60.6%
same,Editing Mean % Indel,mouse TTR gene; [2],50.0%
same,Editing Mean % Indel,mouse TTR gene; [3],67.7%
same,ALP (U/L),[1],784.3 U/L
same,ALT (U/L),[1],408.5 U/L
same,AST (U/L),[1],534.8 U/L
same,Creatine kinase (U/L),[1],157.5 U/L
same,GGT (U/L),[1],2 U/L
same,Total Bilirubin,[1],0.6 mg/dL
same,Editing,TTR in HUH7 cells,22.6%
"CCCCC/C=C\C/C=C\CCCCCCCC(=O)OCC(COC(=O)CCCCCCC/C=C\C/C=C\CCCCC)OC(=O)CCC(CCCCCC)OC(=O)NCCN(C)CC (stereo not shown) [Compound 40, 2-((4-(((2-(ethyl(methyl)amino)ethyl)carbamoyl)oxy)decanoyl)oxy)propane-1,3-diyl (9Z,9′Z,12Z,12′Z)-bis(octadeca-9,12-dienoate)]",Editing Mean % Indel,mouse TTR gene; [4],44.7%
"CCCCC/C=C\C/C=C\CCCCCCCC(=O)OCC(COC(=O)CCCCCCC/C=C\C/C=C\CCCCC)OC(=O)CCC(CCCCCCCCCCCC)OC(=O)OCCCN1CCCC1 (stereo not shown) [Compound 5, 2-((4-(((3-(pyrrolidin-1-yl)propoxy)carbonyl)oxy)hexadecanoyl)oxy)propane-1,3-diyl (9Z,9′Z,12Z,12′Z)-bis(octadeca-9,12-dienoate)]",Editing Mean % Indel,mouse TTR gene; [2],26.1%
same,Editing Mean % Indel,mouse TTR gene; [3],52.5%
same,efficacy for in vivo editing (in words),"mouse TTR gene; mouse liver, Examples 116 and 118",efficacious
same,Editing Mean % Indel,mouse B2M gene,17.5%
"CCCCC/C=C\C/C=C\CCCCCCCC(=O)OCC(COC(=O)CCCCCCC/C=C\C/C=C\CCCCC)OC(=O)CCC(CCCCCCCCCCCC)OC(=O)OCCCN(C)C (stereo not shown) [Compound 1, 2-((4-(((3-(dimethylamino)propoxy)carbonyl)oxy)hexadecanoyl)oxy)propane-1,3-diyl (9Z,9′Z,12Z,12′Z)-bis(octadeca-9,12-dienoate)]",Editing Mean % Indel,mouse TTR gene; [4],13.1%
"CCCCC/C=C\C/C=C\CCCCCCCC(=O)OCC(COC(=O)CCCCCCC/C=C\C/C=C\CCCCC)OC(=O)CCC(CCCCCCCCCCCC)OC(=O)NCC1CCCN1C (stereo not shown) [Compound 9, 2-((4-((((1-methylpyrrolidin-2-yl)methyl)carbamoyl)oxy)hexadecanoyl)oxy) propane-1,3-diyl (9Z,9′Z,12Z,12′Z)-bis(octadeca-9,12-dienoate)]",Editing Mean % Indel,mouse TTR gene; [4],44.1%
same,Mean % Indel,mouse TTR gene; [5],50.6%
same,Mean % Indel,mouse TTR gene; [6],64.5%
same,Editing Mean % Indel,mouse B2M gene,20.3%
"CCCCC/C=C\C/C=C\CCCCCCCC(=O)OCC(COC(=O)CCCCCCC/C=C\C/C=C\CCCCC)OC(=O)CCC(CCCCCC)OC(=O)OCCCN1CCCC1 (stereo not shown) [Compound 45, 2-((4-(((3-(pyrrolidin-1-yl)propoxy)carbonyl)oxy)decanoyl)oxy)propane-1,3-diyl (9Z,9′Z,12Z,12′Z)-bis(octadeca-9,12-dienoate)]",ALP (U/L),[1],439.8 U/L
same,ALT (U/L),[1],163.2 U/L
same,AST (U/L),[1],681 U/L
same,Creatine kinase (U/L),[1],1103 U/L
same,GGT (U/L),[1],2.4 U/L
same,Total Bilirubin,[1],0.3 mg/dL
